The results in this text go back to ChEMBL document CHEMBL1811826, “Structure-activity relationship and docking studies of thiazolidinedione-type compounds with monoamine oxidase B” (Bioorg Med Chem Lett, 2011).

pIC50: −log10 of the molar value. Activity calls are given as the source filed them. No cut-off for these calls is given here.

The target in data set [1] is T1, Amine oxidase [flavin-containing] A (Homo sapiens, UniProt P21397).
T1 sequence (P21397 whole entry): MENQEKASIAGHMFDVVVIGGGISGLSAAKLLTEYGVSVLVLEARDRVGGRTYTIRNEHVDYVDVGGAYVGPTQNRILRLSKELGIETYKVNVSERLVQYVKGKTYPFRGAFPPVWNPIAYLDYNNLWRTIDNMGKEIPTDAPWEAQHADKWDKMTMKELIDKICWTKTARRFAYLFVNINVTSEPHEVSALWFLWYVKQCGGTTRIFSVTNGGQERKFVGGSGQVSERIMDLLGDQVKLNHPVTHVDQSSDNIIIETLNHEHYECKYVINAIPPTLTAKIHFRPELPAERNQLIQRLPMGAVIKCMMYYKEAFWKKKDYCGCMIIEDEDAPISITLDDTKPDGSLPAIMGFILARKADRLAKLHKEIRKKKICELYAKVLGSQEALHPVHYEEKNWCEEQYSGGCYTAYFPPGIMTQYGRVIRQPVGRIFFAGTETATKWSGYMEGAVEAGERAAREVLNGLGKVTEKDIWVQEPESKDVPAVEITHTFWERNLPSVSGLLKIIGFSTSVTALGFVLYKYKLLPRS
The data set is described as follows: Inhibition of human recombinant MAOA assessed as inhibition of kynuramine conversion to fluorescent metabolite 4-hydroxyquinoline by fluorimetry.

The target in data set [2] is T2, Amine oxidase [flavin-containing] B (Homo sapiens, UniProt P27338).
T2 sequence (P27338 whole entry): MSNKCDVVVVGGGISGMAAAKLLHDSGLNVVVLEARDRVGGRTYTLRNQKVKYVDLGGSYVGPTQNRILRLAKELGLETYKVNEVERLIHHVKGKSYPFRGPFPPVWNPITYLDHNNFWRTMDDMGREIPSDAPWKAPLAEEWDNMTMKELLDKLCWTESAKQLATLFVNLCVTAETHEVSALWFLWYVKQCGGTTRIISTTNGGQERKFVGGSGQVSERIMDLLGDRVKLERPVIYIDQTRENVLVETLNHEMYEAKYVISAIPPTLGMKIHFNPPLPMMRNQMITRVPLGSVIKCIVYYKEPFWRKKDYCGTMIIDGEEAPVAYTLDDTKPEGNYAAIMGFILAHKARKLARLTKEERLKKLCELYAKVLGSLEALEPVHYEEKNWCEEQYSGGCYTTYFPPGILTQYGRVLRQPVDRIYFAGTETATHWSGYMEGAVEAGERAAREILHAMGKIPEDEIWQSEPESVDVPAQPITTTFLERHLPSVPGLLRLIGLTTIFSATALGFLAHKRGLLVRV
The data set is described as follows: Inhibition of human recombinant MAOB by amplex red assay.

Data set [3] deals with Mus musculus. As to the kind of experiment: Toxicity in C57BL/6 mouse assessed as striatal dopamine level at 10 mg/kg, sc measured after 7 days by HPLC method. It is filed as organism-based. On the set-up: dose 10 mg/kg, route subcutaneous. As to conditions: in vivo, 168 h.
The test system of data set [4] is Mus musculus. As to the kind of experiment: Neuroprotective activity in MPTP-stimulated C57BL/6 mouse assessed as increase in striatal dopamine content at 10 mg/kg, sc administered 1 hr before MPTP challenge measured after 7 days by HPLC method. Type of data set: functional, organism-based. Also noted: dose 10 mg/kg.

For the compound `CCOc1ccc(/C=C2\SC(=O)N(CCN)C2=O)cc1`, the negative logarithm of the IC50 (pIC50) in data set [1] is 5.98.

For `O=C1NC(=O)/C(=C\c2cc(Br)c(O)c(Br)c2)S1`, the pIC50 in data set [2] is 5.99; in data set [1], 4.40.

Consider `CN1C(=O)/C(=C\c2ccc(Cl)cc2)SC1=S`, for which the pIC50 in data set [2] is 4.44; in data set [1] it was 3.40.

In the case of `O=C(O)CCN1C(=O)/C(=C\c2ccccc2)SC1=S`, the pIC50 in data set [2] was 3.22; in data set [1], 4.15.

For `O=C(O)C(Cc1ccc(O)cc1)N1C(=O)CSC1=S` (stereo unspecified), the pIC50 in data set [2] was 3.56.

Turning to `O=C1NC(=O)C(Cc2ccc(O)cc2)S1` (stereo unspecified) [GLITAZONE], the figures for the pIC50 in data set [2] and in data set [1] were 3.65 and 3.71, respectively.

Turning to `CC(C)(C)c1cc(CC2SC(=O)N=C2O)cc(C(C)(C)C)c1O` (stereo unspecified), the pIC50 in data set [2] is 5.62. In data set [3], the Activity entry is “Non-toxic”. For the same compound, the outcome in data set [4] was Active.

In the case of `COc1ccccc1/C=C1\SC(=O)N(CCN)C1=O`, the pIC50 in data set [1] was 4.53.

For the compound `N#CCCN1C(=O)S/C(=C\c2ccccc2)C1=O`, the negative-log IC50 (pIC50) in data set [1] is 5.46.

Consider `O=C1NC(=S)S/C1=C/c1ccncc1`, for which, in data set [1], the negative logarithm of the IC50 (pIC50) was 4.66.

With `COc1cc(/C=C2\SC(=S)NC2=O)ccc1O`, the figures for the pIC50 in data set [2] and in data set [1] were 5.60 and 4.54, respectively.

In the case of `O=C1NC(=O)/C(=N\c2ccc(C(=O)O)cc2)S1`, the figures for the pIC50 in data set [2] and in data set [1] were 4.25 and 4.43, respectively.

For `CN(C)c1ccc(/C=C2\SC(=O)N(CCN)C2=O)cc1`, the pIC50 in data set [1] was 5.16.

With `O=C1NC(=O)/C(=C\c2ccncc2)S1`, in data set [1], the pIC50 was 4.89.

On to `N=C1NC(=O)C(Cc2ccccc2)S1` (stereo unspecified), for which, in data set [2], the pIC50 is 4.62.

As to `O=C(/C=C1/SC(=O)NC1=O)Nc1cccc(O)c1`, the negative-log IC50 (pIC50) in data set [2] was 4.96; in data set [1], 4.45.

Take `COc1cc(/C=C2/SC(=S)NC2=O)c(OC)cc1O`: the pIC50 in data set [2] is 4.50; in data set [1], 3.42.

Regarding `Cc1cc(CC2SC(=O)NC2=O)cc(C)c1O` (stereo unspecified), the pIC50 in data set [2] was 4.79; in data set [1], 4.58.

Turning to `CCCN1C(=O)/C(=C\c2ccncc2)SC1=S`, the pIC50 was 6.10 in data set [2] and 4.98 in data set [1].

As to `O=C(/C=C1/SC(=O)NC1=O)Nc1ccccc1`, the pIC50 in data set [2] was 4.66; in data set [1] it was 4.45.

For `O=C1NC(=O)/C(=C\c2cccc(Br)c2)S1`, the pIC50 in data set [2] is 5.22; in data set [1], 4.17.

`CN1C(=O)/C(=C\c2ccccc2)SC1=S`: the pIC50 is 4.98 in data set [2] and 6.28 in data set [1].

Regarding `O=C1NC(=O)/C(=C/c2ccc3nccnc3c2)S1`, the pIC50 in data set [1] was 3.78.

Regarding `Cc1cc(C)cc(CC2SC(=O)NC2=O)c1` (stereo unspecified), the pIC50 in data set [1] is 4.30.

As for `CC(=O)c1ccc(CC2SC(=N)NC2=O)cc1` (stereo unspecified), the pIC50 was 3.51 in data set [2] and 3.60 in data set [1].
